Results as given in US20200345010A1, “FUNGICIDAL OXADIAZOLES” (FMC Corporation, priority 2019, published 2020).
Marks after values point to notes of the source that are not given here.

Key:
Phakopsora pachyrhizi = experiment: Test A: Asian soybean rust control on soybean seedlings; assay type: in vivo; conditions: soybean seedlings sprayed the day before inoculation, 100 = 100% disease control, 0 = none
Source text: (§1) General protocol for preparing test suspensions for Tests A-C: the test compounds were first dissolved in acetone in an amount equal to 3% of the final volume and then suspended at the desired concentration (in ppm) in acetone and purified water (50/50 mix by volume) containing 250 ppm of the surfactant PEG400 (polyhydric alcohol esters). The resulting test suspensions were then used in Tests A-C.
(§2) The test solution was sprayed to the point of run-off on soybean seedlings. The following day the seedlings were inoculated with a spore suspension of Phakopsora pachyrhizi (the causal agent of Asian soybean rust) and incubated in a saturated atmosphere at 22° C. for 24 h, and then moved to a growth chamber at 22° C. for 8 days, after which time visual disease ratings were made.
(§3) A rating of 100 indicates 100% disease control and a rating of 0 indicates no disease control (relative to the controls). A dash (-) indicates the compound was not tested.

[1] = tested on: Puccinia recondita f. sp. tritici; experiment: Test C: wheat leaf rust control on wheat seedlings; assay type: in vivo; conditions: wheat seedlings sprayed the day before inoculation, 100 = 100% disease control, 0 = none
Source text: as §1
as §2, with “wheat” for “soybean”, “Puccinia recondita f. sp. tritici” for “Phakopsora pachyrhizi”, “wheat leaf” for “Asian soybean”, “20°” for “22°”, “7” for “8”, “time” for “time visual”
as §3

Zymoseptoria tritici = experiment: Test B: wheat leaf blotch control on wheat seedlings; assay type: in vivo; conditions: 250 ppm test suspension (asterisk); wheat seedlings sprayed the day before inoculation; 100 = 100% disease control, 0 = none
Source text: as §1
The test solution was sprayed to the point of run-off on wheat seedlings. The following day the seedlings were inoculated with a spore suspension of Zymoseptoria tritici (the causal agent of wheat leaf blotch) and incubated in a saturated atmosphere at 24° C. for 48 h, and then moved to a growth chamber at 20° C. for 17 days, after which time disease ratings were made.
as §3

[2] = 250 ppm test suspension (asterisk)

CCCS(=O)(Cc1ccccc1)=NCc1ccc(-c2noc(C(F)(F)F)n2)cc1 (centres unmarked) [Compound 36]
Test A disease control rating (Phakopsora pachyrhizi; 10 ppm test suspension): 100% | Test C disease control rating ([1]; 10 ppm test suspension): 0%

CS(C)(=O)=Nc1ccc(-c2noc(C(F)(F)F)n2)cc1 [Compound 1]
Test A disease control rating (Phakopsora pachyrhizi; 10 ppm test suspension): 73% | Test C disease control rating ([1]; 10 ppm test suspension): 0%

CS(C)(=O)=NCCc1ccc(-c2noc(C(F)(F)F)n2)cc1 [Compound 33, N-(dimethyloxido-λ^4-sulfanylidene)-4-[5-(trifluoromethyl)-1,2,4-oxadiazol-3-yl]benzeneethanamine]
Test A disease control rating (Phakopsora pachyrhizi; 10 ppm test suspension): 99% | Test C disease control rating ([1]; 10 ppm test suspension): 68%

CS(=O)(=Nc1ccc(-c2noc(C(F)(F)F)n2)cc1)c1ccccn1 (centres unmarked) [Compound 6]
Test A disease control rating (Phakopsora pachyrhizi; 10 ppm test suspension): 99% | Test C disease control rating ([1]; 10 ppm test suspension): 74%

CCS(=O)(CC)=NCc1ccc(-c2noc(C(F)(F)F)n2)cc1 [Compound 34]
Test A disease control rating (Phakopsora pachyrhizi; 10 ppm test suspension): 100% | Test C disease control rating ([1]; 10 ppm test suspension): 41%

CS(=O)(=NCc1ccc(-c2noc(C(F)(F)F)n2)cc1)c1ccc(C(F)(F)F)cc1 (centres unmarked) [Compound 11]
Test A disease control rating (Phakopsora pachyrhizi; 10 ppm test suspension): 99% | Test C disease control rating ([1]; 10 ppm test suspension): 0%

CS(=O)(=Nc1ccc(-c2noc(C(F)(F)F)n2)cc1)c1ccc2ccccc2c1 (centres unmarked) [Compound 30]
Test A disease control rating (Phakopsora pachyrhizi; 10 ppm test suspension): 0% | Test C disease control rating ([1]; 10 ppm test suspension): 74%

CS(=O)(Cc1ccccc1)=NCc1ccc(-c2noc(C(F)(F)F)n2)cc1 (centres unmarked) [Compound 2, N-[methyloxido(phenylmethyl)-λ^4-sulfanylidene]-4-[5-(trifluoromethyl)-1,2,4-oxadiazol-3-yl]benzenemethanamine]
Test A disease control rating (Phakopsora pachyrhizi; 50 ppm test suspension): 100% | Test B disease control rating (Zymoseptoria tritici): 93* % | Test C disease control rating ([1]; 50 ppm test suspension): 100%

COc1ccc(S(C)(=O)=NCc2ccc(-c3noc(C(F)(F)F)n3)cc2)cc1 (centres unmarked) [Compound 47]
Test A disease control rating (Phakopsora pachyrhizi; 10 ppm test suspension): 99% | Test C disease control rating ([1]; 10 ppm test suspension): 32%

CCCS(=O)(=NCc1ccc(-c2noc(C(F)(F)F)n2)cc1)c1ccccc1 (centres unmarked) [Compound 32]
Test A disease control rating (Phakopsora pachyrhizi; 10 ppm test suspension): 99% | Test C disease control rating ([1]; 10 ppm test suspension): 0%

CCCS(=O)(Cc1ccccc1)=Nc1ccc(-c2noc(C(F)(F)F)n2)cc1 (centres unmarked) [Compound 35]
Test A disease control rating (Phakopsora pachyrhizi; 10 ppm test suspension): 0% | Test C disease control rating ([1]; 10 ppm test suspension): 0%

CS(=O)(=NCc1ccc(-c2noc(C(F)(F)F)n2)cc1)c1ccccc1 (single isomer, unassigned) [Compound 8]
Test A disease control rating (Phakopsora pachyrhizi; 10 ppm test suspension): 100% | Test C disease control rating ([1]; 10 ppm test suspension): 68%

CCCS(C)(=O)=NCc1ccc(-c2noc(C(F)(F)F)n2)cc1 (centres unmarked) [Compound 46]
Test A disease control rating (Phakopsora pachyrhizi; 10 ppm test suspension): 100% | Test B disease control rating (Zymoseptoria tritici): 1* % | Test C disease control rating ([1]; 10 ppm test suspension): 100%

CS(=O)(=Nc1ccc(-c2noc(C(F)(F)F)n2)cc1)c1ccncc1 (centres unmarked) [Compound 20]
Test A disease control rating (Phakopsora pachyrhizi; 10 ppm test suspension): 98% | Test C disease control rating ([1]; 10 ppm test suspension): 89%

O=S(=NCc1ccc(-c2noc(C(F)(F)F)n2)cc1)(c1ccccc1)C1CC1 (centres unmarked) [Compound 12]
Test A disease control rating (Phakopsora pachyrhizi; 10 ppm test suspension): 97% | Test B disease control rating (Zymoseptoria tritici): 53* % | Test C disease control rating [1, 2]: 99* %

CS(=O)(=Nc1ccc(-c2noc(C(F)(F)F)n2)cc1)c1cccs1 (centres unmarked) [Compound 13]
Test A disease control rating (Phakopsora pachyrhizi; 10 ppm test suspension): 100% | Test B disease control rating (Zymoseptoria tritici): 91* % | Test C disease control rating ([1]; 10 ppm test suspension): 45%

O=S1(=Nc2ccc(-c3noc(C(F)(F)F)n3)cc2)CCCC1 [Compound 16]
Test A disease control rating (Phakopsora pachyrhizi; 10 ppm test suspension): 77% | Test B disease control rating (Zymoseptoria tritici): 89* % | Test C disease control rating ([1]; 10 ppm test suspension): 0%

CS(=O)(=NCc1ccc(-c2noc(C(F)(F)F)n2)cc1)c1cccc(C#N)c1 (centres unmarked) [Compound 45]
Test A disease control rating (Phakopsora pachyrhizi; 10 ppm test suspension): 100% | Test B disease control rating (Zymoseptoria tritici): 0* % | Test C disease control rating ([1]; 10 ppm test suspension): 100%

CS(=O)(=NCc1ccc(-c2noc(C(F)(F)F)n2)cc1)c1ccccn1 (centres unmarked) [Compound 4]
Test A disease control rating (Phakopsora pachyrhizi; 10 ppm test suspension): 98% | Test C disease control rating ([1]; 10 ppm test suspension): 74%

O=S(CCC(F)(F)F)(=NCc1ccc(-c2noc(C(F)(F)F)n2)cc1)c1ccccc1 (centres unmarked) [Compound 19]
Test A disease control rating (Phakopsora pachyrhizi; 10 ppm test suspension): 85% | Test C disease control rating ([1]; 10 ppm test suspension): 0%

CS(=O)(=NCc1ccc(-c2noc(C(F)(F)F)n2)cc1)c1ccc(Br)cc1 (centres unmarked) [Compound 9]
Test A disease control rating (Phakopsora pachyrhizi; 10 ppm test suspension): 92% | Test C disease control rating ([1]; 10 ppm test suspension): 0%

CS(=O)(=NCc1ccc(-c2noc(C(F)(F)F)n2)cc1)c1ccsc1 (centres unmarked) [Compound 28]
Test A disease control rating (Phakopsora pachyrhizi; 10 ppm test suspension): 100% | Test B disease control rating (Zymoseptoria tritici): 79* % | Test C disease control rating [1, 2]: 100* %

Cl.O=S1(=NCc2ccc(-c3noc(C(F)(F)F)n3)cc2)CCNCC1 [Compound 24]
Test A disease control rating (Phakopsora pachyrhizi; 10 ppm test suspension): 99% | Test B disease control rating (Zymoseptoria tritici): 18* % | Test C disease control rating [1, 2]: 99* % | melting point: 219 to 223 °C

CS(=O)(=NCc1ccc(-c2noc(C(F)(F)F)n2)cc1)c1cccs1 (centres unmarked) [Compound 27]
Test A disease control rating (Phakopsora pachyrhizi; 10 ppm test suspension): 100% | Test B disease control rating (Zymoseptoria tritici): 98* % | Test C disease control rating [1, 2]: 100* %

COCCS(=O)(=NCc1ccc(-c2noc(C(F)(F)F)n2)cc1)c1ccccc1 (centres unmarked) [Compound 48, N-[(2-methoxyethyl)oxidophenyl-λ^4-sulfanylidene]-4-[5-(trifluoromethyl)-1,2,4-oxadiazol-3-yl]benzenemethanamine]
Test A disease control rating (Phakopsora pachyrhizi; 10 ppm test suspension): 98% | Test C disease control rating ([1]; 10 ppm test suspension): 45%

Cc1cc(C)c(S(C)(=O)=NCc2ccc(-c3noc(C(F)(F)F)n3)cc2)c(C)c1 (centres unmarked) [Compound 40]
Test A disease control rating (Phakopsora pachyrhizi; 10 ppm test suspension): 91% | Test B disease control rating (Zymoseptoria tritici): 36* % | Test C disease control rating ([1]; 10 ppm test suspension): 0%

O=S1(=NCc2ccc(-c3noc(C(F)(F)F)n3)cc2)CCCCC1 [Compound 43]
Test A disease control rating (Phakopsora pachyrhizi; 50 ppm test suspension): 100% | Test C disease control rating ([1]; 50 ppm test suspension): 99%

CC(N=S(C)(C)=O)c1ccc(-c2noc(C(F)(F)F)n2)cc1 (centres unmarked) [Compound 52]
Test A disease control rating (Phakopsora pachyrhizi; 10 ppm test suspension): 79% | Test B disease control rating (Zymoseptoria tritici): 25* % | Test C disease control rating ([1]; 50 ppm test suspension): 98** %

CS(=O)(=NCc1ccc(-c2noc(C(F)(F)F)n2)cc1)c1ccc(Cl)cc1 (centres unmarked) [Compound 3]
Test A disease control rating (Phakopsora pachyrhizi; 10 ppm test suspension): 94% | Test C disease control rating ([1]; 10 ppm test suspension): 0%

CS(=O)(=NCc1ccc(-c2noc(C(F)(F)F)n2)cc1)c1ccccc1 (centres unmarked) [Compound 21]
Test A disease control rating (Phakopsora pachyrhizi; 50 ppm test suspension): 100% | Test B disease control rating (Zymoseptoria tritici): 70* % | Test C disease control rating [1, 2]: 100* %

CS(=O)(=NCc1ccc(-c2noc(C(F)(F)F)n2)cc1)c1ccccc1 (single isomer, unassigned) [Compound 23]
Test A disease control rating (Phakopsora pachyrhizi; 50 ppm test suspension): 100% | Test C disease control rating ([1]; 50 ppm test suspension): 85%

CS(=O)(=NCc1ccc(-c2noc(C(F)(F)F)n2)cc1)c1ccc2ccccc2c1 (centres unmarked) [Compound 29]
Test A disease control rating (Phakopsora pachyrhizi; 10 ppm test suspension): 97% | Test B disease control rating (Zymoseptoria tritici): 3* % | Test C disease control rating [1, 2]: 99* %

CS(=O)(=Nc1ccc(-c2noc(C(F)(F)F)n2)cc1)c1ccsc1 (centres unmarked) [Compound 25, N-(methyloxido-3-thienyl-λ^4-sulfanylidene)-4-[5-(trifluoromethyl)-1,2,4-oxadiazol-3-yl]benzenamine]
Test A disease control rating (Phakopsora pachyrhizi; 10 ppm test suspension): 100% | Test C disease control rating ([1]; 10 ppm test suspension): 86%

COC(=O)CCS(=O)(=NCc1ccc(-c2noc(C(F)(F)F)n2)cc1)c1ccccc1 (centres unmarked) [Compound 18]
Test A disease control rating (Phakopsora pachyrhizi; 10 ppm test suspension): 84% | Test C disease control rating ([1]; 10 ppm test suspension): 0%

O=S1(=NCc2ccc(-c3noc(C(F)(F)F)n3)cc2)CCOCC1 [Compound 14]
Test A disease control rating (Phakopsora pachyrhizi; 10 ppm test suspension): 99% | Test C disease control rating ([1]; 10 ppm test suspension): 91%

CCCS(=O)(=NCc1ccc(-c2noc(C(F)(F)F)n2)cc1)c1c(F)c(F)c(F)c(F)c1F (centres unmarked) [Compound 37]
Test A disease control rating (Phakopsora pachyrhizi; 50 ppm test suspension): 100% | Test B disease control rating (Zymoseptoria tritici): 15* % | Test C disease control rating ([1]; 50 ppm test suspension): 89%

CS(=O)(=Nc1ccc(-c2noc(C(F)(F)F)n2)cc1)c1ccccc1 (centres unmarked) [Compound 39]
Test A disease control rating (Phakopsora pachyrhizi; 10 ppm test suspension): 99% | Test B disease control rating (Zymoseptoria tritici): 65* % | Test C disease control rating ([1]; 10 ppm test suspension): 100%

COC(=O)c1ccc(S(C)(=O)=NCc2ccc(-c3noc(C(F)(F)F)n3)cc2)cc1 (centres unmarked) [Compound 49]
Test A disease control rating (Phakopsora pachyrhizi; 10 ppm test suspension): 0% | Test C disease control rating ([1]; 10 ppm test suspension): 0%

CS(C)(=O)=NCc1ccc(-c2noc(C(F)(F)F)n2)cc1 [Compound 50]
Test A disease control rating (Phakopsora pachyrhizi; 10 ppm test suspension): 99% | Test C disease control rating ([1]; 50 ppm test suspension): 100** %

CS(=O)(=NCc1ccc(-c2noc(C(F)(F)F)n2)cc1)c1ccc(C#N)cc1 (centres unmarked) [Compound 10]
Test A disease control rating (Phakopsora pachyrhizi; 10 ppm test suspension): 100% | Test C disease control rating ([1]; 10 ppm test suspension): 55%

O=S(CCl)(=NCc1ccc(-c2noc(C(F)(F)F)n2)cc1)c1ccccc1 (centres unmarked) [Compound 15]
Test A disease control rating (Phakopsora pachyrhizi; 10 ppm test suspension): 97% | Test B disease control rating (Zymoseptoria tritici): 28* % | Test C disease control rating [1, 2]: 99* %

CS(=O)(Cc1ccccc1)=Nc1ccc(-c2noc(C(F)(F)F)n2)cc1 (centres unmarked) [Compound 22]
Test A disease control rating (Phakopsora pachyrhizi; 10 ppm test suspension): 54% | Test C disease control rating ([1]; 10 ppm test suspension): 89%

CS(=O)(=NCc1ccc(-c2noc(C(F)(F)F)n2)cc1)c1ccccc1C#N (centres unmarked) [Compound 44]
Test A disease control rating (Phakopsora pachyrhizi; 10 ppm test suspension): 98% | Test B disease control rating (Zymoseptoria tritici): 0* % | Test C disease control rating ([1]; 10 ppm test suspension): 100%
